Results: patent US12595357B2, “Black knot melanin—a super-additive with UV absorbing and antioxidant properties” (The University of Akron, priority 2021, dated 2026)

Test: DPPH assay for antioxidant activity (radical scavenging)
Format: biochemical
Settings: 0.1 mM DPPH solution, absorbance at 517 nm; masses greater than or equal to 40 μg
Protocol: 2,2-diphenyl-1-(2,4,6-trinitrophenyl) hydrazyl (DPPH) radical scavenging activity of BKF melanin was measured according to the procedure described in the literature. […] Afterwards, the UV-vis absorbance spectra were collected to monitor the decrease in the absorbance at 517 nm due to quenching of DPPH radical by the BKF melanin. Similar volumes of BKF melanin solution were added to pure ethanol (instead of 0.1 mM DPPH solution) to measure the absorbance of BKF melanin itself. Afterwards, the scavenging activity (or antioxidant activity) [I] was calculated using Equation 1, where Ac is the absorbance of DPPH solution without any BKF melanin, Ai is the absorbance of DPPH solution mixed with varying amounts of BKF melanin, and Aj is the absorbance of BKF melanin itself without DPPH solution. […]
The antioxidant activity of BKF melanin was investigated using the DPPH assay described above. The scavenging activity was determined by monitoring the decrease in absorbance of DPPH at 517 nm, since the DPPH is reduced through an electron transfer from the antioxidant material. […] As the ascorbic acid concentration increases from 0 to 60 μg, the absorbance at 517 nm decreases along with visual change in color from purple to yellow. The antioxidant activity (%) calculated using Equation 1 is plotted as a function of ascorbic acid mass in FIG. 3B. […]

SMILES: O=C1O[C@H]([C@@H](O)CO)C(O)=C1O [ascorbic acid]
- antioxidant activity (%), saturated value: ~90%
